Source: patent US11090319B2, “Therapeutic uses of pharmaceutical compositions comprising cyclic boronic acid ester derivatives” (Melinta Subsidiary Corp., priority 2010, dated 2021)
Where two headings read alike, the source gives them in different places.

Key:
[1] = tested on: strains expressing class A ESBLs; assay type: cell-based; conditions: tigemonam at 4 μg/mL; for MPC4 TEM-10 EC1009: strain EC1009 TEM-10; for MPC4 CTX-M-14 KP1005: strain KP1005 CTX-M-14; for MPC4 CTX-M-15 KP1009: strain KP1009 CTX-M-15; for MPC4 SHV-12 KP1010: strain KP1010 SHV-12; for MPC4 SHV-18 KP1012: strain KP1012 SHV-18; for MPC4 TEM-10 ec302: strain ec302 TEM-10; for MPC4 TEM-26 ec304: strain ec304 TEM-26; for MPC4 SHV-5 ec308: strain ec308 SHV-5
Experimental: Selected β-lactamase inhibitors were also tested for their ability to potentiate the monobactam tigemonam.

[2] = tested on: strains expressing KPC alone or in combination with additional beta-lactamases; assay: microbe, parasite or virus in culture; assay type: cell-based

SMILES | MPC4 TEM-10 EC1009 [1] | MPC4 CTX-M-14 KP1005 [1] | MPC4 CTX-M-15 KP1009 [1] | MPC4 SHV-12 KP1010 [1] | MPC4 SHV-18 KP1012 [1] | MPC4 TEM-10 ec302 [1] | MPC4 TEM-26 ec304 [1] | MPC4 SHV-5 ec308 [1] | further results
N[C@@H](C(=O)N[C@H]1CC[C@@H](CC(=O)O)OB1O)c1ccccc1 [Compound 9] | Z (MPC@4 of greater than 10 μg/mL) | Z (MPC@4 of greater than 10 μg/mL) | Z (MPC@4 of greater than 10 μg/mL) | Z (MPC@4 of greater than 10 μg/mL) | Z (MPC@4 of greater than 10 μg/mL) | Z (MPC@4 of greater than 10 μg/mL) | Z (MPC@4 of greater than 10 μg/mL) | Z (MPC@4 of greater than 10 μg/mL) | 
O=C(O)C[C@@H]1CC[C@H](NC(=O)NCc2ccccc2)B(O)O1 [Compound 18] | X (MPC@4 of less than 2 μg/mL) | X (MPC@4 of less than 2 μg/mL) | X (MPC@4 of less than 2 μg/mL) | X (MPC@4 of less than 2 μg/mL) | X (MPC@4 of less than 2 μg/mL) | Y (MPC@4 of 2 μg/mL to 10 μg/mL) | Y (MPC@4 of 2 μg/mL to 10 μg/mL) | Y (MPC@4 of 2 μg/mL to 10 μg/mL) | 
O=C(O)CC1C=CC[C@H](NC(=O)Cc2cccs2)B(O)O1 (stereo partly drawn) [Compound 64, 2-((3R)-2-hydroxy-3-(2-(thiophen-2-yl)acetamido)-2,3,4,7-tetrahydro-1,2-oxaborepin-7-yl)acetic acid] | Y (MPC@4 of 2 μg/mL to 10 μg/mL) | Z (MPC@4 of greater than 10 μg/mL) | Y (MPC@4 of 2 μg/mL to 10 μg/mL) | X (MPC@4 of less than 2 μg/mL) | Y (MPC@4 of 2 μg/mL to 10 μg/mL) | Z (MPC@4 of greater than 10 μg/mL) | Z (MPC@4 of greater than 10 μg/mL) | Y (MPC@4 of 2 μg/mL to 10 μg/mL) | 
O=C(O)C[C@@H]1C=CC[C@H](NC(=O)Cc2cccs2)B(O)O1 [Compound 67, 2-((3R,7R)-2-hydroxy-3-(2-(thiophen-2-yl)acetamido)-2,3,4,7-tetrahydro-1,2-oxaborepin-7-yl)acetic acid] | Z (MPC@4 of greater than 10 μg/mL) | Z (MPC@4 of greater than 10 μg/mL) | Y (MPC@4 of 2 μg/mL to 10 μg/mL) | Y (MPC@4 of 2 μg/mL to 10 μg/mL) | Y (MPC@4 of 2 μg/mL to 10 μg/mL) | Z (MPC@4 of greater than 10 μg/mL) | Z (MPC@4 of greater than 10 μg/mL) | Z (MPC@4 of greater than 10 μg/mL) | 
O=C(O)C[C@H]1C=CC[C@H](NC(=O)Cc2cccs2)B(O)O1 [Compound 68, 2-((3R,7S)-2-hydroxy-3-(2-(thiophen-2-yl)acetamido)-2,3,4,7-tetrahydro-1,2-oxaborepin-7-yl)acetic acid] | Y (MPC@4 of 2 μg/mL to 10 μg/mL) | Y (MPC@4 of 2 μg/mL to 10 μg/mL) | Y (MPC@4 of 2 μg/mL to 10 μg/mL) | X (MPC@4 of less than 2 μg/mL) | X (MPC@4 of less than 2 μg/mL) | Y (MPC@4 of 2 μg/mL to 10 μg/mL) | Y (MPC@4 of 2 μg/mL to 10 μg/mL) | Y (MPC@4 of 2 μg/mL to 10 μg/mL) | 
C[C@@H](O)[C@H]1C(=O)N2C(C(=O)O)=C(S[C@@H]3CN[C@H](CNS(N)(=O)=O)C3)[C@H](C)[C@H]12 [Doripenem] |  |  |  |  |  |  |  |  | MIC ([2]; Enterobacter cloacae, Enterobacter cloacae ECL1058, KPC-3, SHV-11, TEM-1, Compound 5 0 mg/L, read-out: MIC of Doripenem): > 4 µg/mL; MIC ([2]; Enterobacter cloacae, Enterobacter cloacae ECL1059, KPC-3, SHV-12, TEM-1, Compound 5 0 mg/L, read-out: MIC of Doripenem): 0.5 to 4 µg/mL; MIC ([2]; Escherichia coli, Escherichia coli EC1007, KPC-3, Compound 5 0 mg/L, read-out: MIC of Doripenem): 0.5 to 4 µg/mL; MIC ([2]; Klebsiella oxytoca, Klebsiella oxytoca KX1017, KPC-2, OXA-2, SHV-30, Compound 5 0 mg/L, read-out: MIC of Doripenem): 0.5 to 4 µg/mL; MIC ([2]; Klebsiella oxytoca, Klebsiella oxytoca KX1018, KPC-2, SHV-40, OXY-1, Compound 5 0 mg/L, read-out: MIC of Doripenem): 0.5 to 4 µg/mL; MIC ([2]; Klebsiella oxytoca, Klebsiella oxytoca KX1019, KPC-2 OXA-2, Compound 5 0 mg/L, read-out: MIC of Doripenem): 0.5 to 4 µg/mL; MIC ([2]; Klebsiella pneumoniae, Klebsiella pneumoniae KP 1004, KPC-2, Compound 5 0 mg/L, read-out: MIC of Doripenem): 0.5 to 4 µg/mL; MIC ([2]; Klebsiella pneumoniae, Klebsiella pneumoniae KP 1008, KPC-2, Compound 5 0 mg/L, read-out: MIC of Doripenem): 0.5 to 4 µg/mL; MIC ([2]; Klebsiella pneumoniae, Klebsiella pneumoniae KP1082, KPC-2 SHV-1, Compound 5 0 mg/L, read-out: MIC of Doripenem): 0.5 to 4 µg/mL; MIC ([2]; Klebsiella pneumoniae, Klebsiella pneumoniae KP1083, KPC-3, SHV-1, TEM-1, Compound 5 0 mg/L, read-out: MIC of Doripenem): > 4 µg/mL; MIC ([2]; Klebsiella pneumoniae, Klebsiella pneumoniae KP1084, KPC-3, SHV-11, TEM-1, Compound 5 0 mg/L, read-out: MIC of Doripenem): > 4 µg/mL; MIC ([2]; Klebsiella pneumoniae, Klebsiella pneumoniae KP 1087, KPC-2, CTX-M-15, SHV-11, TEM-1, Compound 5 0 mg/L, read-out: MIC of Doripenem): > 4 µg/mL; MIC ([2]; Klebsiella pneumoniae, Klebsiella pneumoniae KP1088, KPC-3, SHV-11, TEM-1, Compound 5 0 mg/L, read-out: MIC of Doripenem): 0.5 to 4 µg/mL
C[C@@H](O)[C@H]1C(=O)N2C(C(=O)O)=C(S[C@@H]3CN[C@H](C(=O)Nc4cccc(C(=O)O)c4)C3)[C@H](C)[C@H]12 [Ertapenem] |  |  |  |  |  |  |  |  | MIC ([2]; Enterobacter cloacae, Enterobacter cloacae ECL1058, KPC-3, SHV-11, TEM-1, Compound 5 0 mg/L, read-out: MIC of Ertapenem): > 4 µg/mL; MIC ([2]; Enterobacter cloacae, Enterobacter cloacae ECL1059, KPC-3, SHV-12, TEM-1, Compound 5 0 mg/L, read-out: MIC of Ertapenem): 0.5 to 4 µg/mL; MIC ([2]; Escherichia coli, Escherichia coli EC1007, KPC-3, Compound 5 0 mg/L, read-out: MIC of Ertapenem): > 4 µg/mL; MIC ([2]; Klebsiella oxytoca, Klebsiella oxytoca KX1017, KPC-2, OXA-2, SHV-30, Compound 5 0 mg/L, read-out: MIC of Ertapenem): > 4 µg/mL; MIC ([2]; Klebsiella oxytoca, Klebsiella oxytoca KX1018, KPC-2, SHV-40, OXY-1, Compound 5 0 mg/L, read-out: MIC of Ertapenem): > 4 µg/mL; MIC ([2]; Klebsiella oxytoca, Klebsiella oxytoca KX1019, KPC-2 OXA-2, Compound 5 0 mg/L, read-out: MIC of Ertapenem): > 4 µg/mL; MIC ([2]; Klebsiella pneumoniae, Klebsiella pneumoniae KP 1004, KPC-2, Compound 5 0 mg/L, read-out: MIC of Ertapenem): > 4 µg/mL; MIC ([2]; Klebsiella pneumoniae, Klebsiella pneumoniae KP 1008, KPC-2, Compound 5 0 mg/L, read-out: MIC of Ertapenem): > 4 µg/mL; MIC ([2]; Klebsiella pneumoniae, Klebsiella pneumoniae KP1082, KPC-2 SHV-1, Compound 5 0 mg/L, read-out: MIC of Ertapenem): 0.5 to 4 µg/mL; MIC ([2]; Klebsiella pneumoniae, Klebsiella pneumoniae KP1083, KPC-3, SHV-1, TEM-1, Compound 5 0 mg/L, read-out: MIC of Ertapenem): > 4 µg/mL; MIC ([2]; Klebsiella pneumoniae, Klebsiella pneumoniae KP1084, KPC-3, SHV-11, TEM-1, Compound 5 0 mg/L, read-out: MIC of Ertapenem): > 4 µg/mL; MIC ([2]; Klebsiella pneumoniae, Klebsiella pneumoniae KP 1087, KPC-2, CTX-M-15, SHV-11, TEM-1, Compound 5 0 mg/L, read-out: MIC of Ertapenem): > 4 µg/mL; MIC ([2]; Klebsiella pneumoniae, Klebsiella pneumoniae KP1088, KPC-3, SHV-11, TEM-1, Compound 5 0 mg/L, read-out: MIC of Ertapenem): > 4 µg/mL
C[C@@H](O)[C@H]1C(=O)N2C(C(=O)O)=C(SCCN=CN)C[C@H]12 [Imipenem] |  |  |  |  |  |  |  |  | MIC ([2]; Escherichia coli, read-out: MIC of Imipenem): > 4 µg/mL
C[C@@H](O)[C@H]1C(=O)N2C(C(=O)O)=C(S[C@@H]3CN[C@H](C(=O)N(C)C)C3)[C@H](C)[C@H]12 [Meropenem] |  |  |  |  |  |  |  |  | MIC ([2]; Enterobacter cloacae, read-out: MIC of Meropenem, Enterobacter cloacae ECL1058, KPC-3, SHV-11, TEM-1, Compound 5 0 mg/L): > 4 µg/mL; MIC ([2]; Enterobacter cloacae, read-out: MIC of Meropenem, Enterobacter cloacae ECL1059, KPC-3, SHV-12, TEM-1, Compound 5 0 mg/L): 0.5 to 4 µg/mL; MIC ([2]; Escherichia coli, read-out: MIC of Meropenem, Escherichia coli EC1007, KPC-3, Compound 5 0 mg/L): 0.5 to 4 µg/mL; MIC ([2]; Klebsiella oxytoca, read-out: MIC of Meropenem, Klebsiella oxytoca KX1017, KPC-2, OXA-2, SHV-30, Compound 5 0 mg/L): 0.5 to 4 µg/mL; MIC ([2]; Klebsiella oxytoca, read-out: MIC of Meropenem, Klebsiella oxytoca KX1018, KPC-2, SHV-40, OXY-1, Compound 5 0 mg/L): 0.5 to 4 µg/mL; MIC ([2]; Klebsiella oxytoca, read-out: MIC of Meropenem, Klebsiella oxytoca KX1019, KPC-2 OXA-2, Compound 5 0 mg/L): 0.5 to 4 µg/mL; MIC ([2]; Klebsiella pneumoniae, read-out: MIC of Meropenem, Klebsiella pneumoniae KP 1004, KP C-2, Compound 5 0 mg/L): > 4 µg/mL; MIC ([2]; Klebsiella pneumoniae, read-out: MIC of Meropenem, Klebsiella pneumoniae KP 1008, KPC-2, Compound 5 0 mg/L): 0.5 to 4 µg/mL; MIC ([2]; Klebsiella pneumoniae, read-out: MIC of Meropenem, Klebsiella pneumoniae KP1082, KPC-2 SHV-1, Compound 5 0 mg/L): 0.5 to 4 µg/mL; MIC ([2]; Klebsiella pneumoniae, read-out: MIC of Meropenem, Klebsiella pneumoniae KP1083, KPC-3, SHV-1, TEM-1, Compound 5 0 mg/L): > 4 µg/mL; MIC ([2]; Klebsiella pneumoniae, read-out: MIC of Meropenem, Klebsiella pneumoniae KP1084, KPC-3, SHV-11, TEM-1, Compound 5 0 mg/L): > 4 µg/mL; MIC ([2]; Klebsiella pneumoniae, read-out: MIC of Meropenem, Klebsiella pneumoniae KP 1087, KPC-2, CTX-M-15, SHV-11, TEM-1, Compound 5 0 mg/L): > 4 µg/mL; MIC ([2]; Klebsiella pneumoniae, read-out: MIC of Meropenem, Klebsiella pneumoniae KP1088, KPC-3, SHV-11, TEM-1, Compound 5 0 mg/L): > 4 µg/mL
